Test results published in patent US20160137639A1, “TRIAZOLE-ISOXAZOLE COMPOUND AND MEDICAL USE THEREOF” (JAPAN TOBACCO INC., priority 2012, published 2016).

These compounds were tested against T1, mouse RORγ (Mus musculus, UniProt P51450) (assay: Luciferase reporter gene assay of inhibitory effect against RORγ transcriptional activity (GAL4-mRORγ plasmid in CHO cells)). Details: read-out: LUC EC50 (μM) mRORg.
T1 construct: mouse, NM_011281.2 and from Ile251 to Lys516; expressed in transfected cells; host or cells: CHO cells (transient co-transfection with pG5-Luc reporter)
T1 sequence (P51450 251-516): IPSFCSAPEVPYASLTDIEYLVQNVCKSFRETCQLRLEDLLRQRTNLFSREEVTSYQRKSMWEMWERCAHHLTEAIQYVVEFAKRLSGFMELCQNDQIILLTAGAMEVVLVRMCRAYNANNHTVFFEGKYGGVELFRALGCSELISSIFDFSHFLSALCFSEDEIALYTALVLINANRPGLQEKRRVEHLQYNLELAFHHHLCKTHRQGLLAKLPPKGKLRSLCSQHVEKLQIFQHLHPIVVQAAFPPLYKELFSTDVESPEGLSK
Type: cell-based
Outline: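 CHO cells transiently co-transfected with GAL4-mouse RORγ LBD (Ile251–Lys516) and GAL4-dependent luciferase reporter; eight compound concentrations, 0.1% DMSO, 2 days at 37 °C. Luminescence as %-of-vehicle control; EC50 by curve fit, cytotoxic concentrations excluded.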
In the case of COC(=O)C(C)(C)CCCc1nnc(CCC(=O)Nc2cccc(Cl)c2C)n1C1CC1 [Example F-230], the EC50 is reported as < 3 µM. In the case of Cc1ccc(C2CC2)cc1NC(=O)CCc1nnc(CCC(C)C)n1C1CC1 [Example F-152], the EC50 is reported as > 3 µM. For Cc1ccc(NC(=O)C[C@H](CCC(=O)O)c2noc(-c3cc(C4CCCC4)on3)c2C2CC2)c(Cl)c1 [Example E-24], the EC50 was < 3 µM. In the case of Cc1c(Cl)cccc1NC(=O)CCc1nnc(C2CN(C(=O)C(C)C)C2)n1C1CC1 [Example F-259], the EC50 is reported as > 3 µM. With CC(=O)N1CCCC(CCc2nnc(CCC(=O)Nc3cccc(Cl)c3C)n2C2CC2)C1 (racemic) [Example F-190] the EC50 was > 3 µM. With Cc1c(NC(=O)CCc2nnc(CCC(C)C)n2C2CC2)ccc(Cl)c1Cl [Example F-165] the EC50 was < 3 µM. CCn1c(CCC(=O)Nc2cccc3ccccc23)nnc1C1Cc2ccccc2C1 [Example F-1] was tested, and the EC50 was < 3 µM. In the case of O=C(O)CC[C@@H](CC(=O)Nc1ccc(Cl)cc1Cl)c1noc(-c2cc(C3CCCC3)on2)c1C1CC1 [Example E-70], the EC50 is reported as < 3 µM. With CC(=O)N1C[C@H](C(=O)Nc2ccc(C)cc2C)[C@@H](c2nnc([C@H]3C[C@H](OC(C)C)C3)n2C2CC2)C1 [Example F-334] the EC50 was < 3 µM. CC(C)C(F)(F)c1cc(-c2onc([C@@H](CCC(=O)O)CC(=O)Nc3ccc(F)cc3Cl)c2C2CC2)no1 [Example E-61] was tested, and the EC50 was < 3 µM. In the case of CCn1c(CCC(=O)Nc2cccc(Cl)c2C)nnc1CCC(C)C [Example F-52], the EC50 is reported as < 3 µM. With CC(=O)N1C[C@H](C(=O)Nc2ccc(C)cc2C)[C@@H](c2nnc(C3CN(S(=O)(=O)C(C)C)C3)n2C2CC2)C1 (racemic) [Example F-418] the EC50 was > 3 µM. In the case of COCc1ccc(C)c(NC(=O)CCc2nnc(CCC(C)C)n2C2CC2)c1 [Example F-174], the EC50 is reported as > 3 µM. Cc1ccc(NC(=O)C[C@H](CCC(=O)O)c2noc(-c3cc(C4(C)CCCC4)on3)c2C2CC2)c(Cl)c1 [Example E-42] was tested, and the EC50 was < 3 µM. In the case of Cc1ccc(NC(=O)C[C@H](N)c2nnc(CCCC(C)(C)C)n2C2CC2)c(C)c1 [Example F-359], the EC50 is reported as < 3 µM. For Cc1ccc(NC(=O)C[C@H](CCC(=O)O)c2noc(-c3cc(C(F)(F)C4CC4)on3)c2C2CC2)c(Cl)c1 [Example E-73], the EC50 was < 3 µM.

Same assay, conditions: read-out: LUC EC50 mRORg
Cc1ccc(NC(=O)[C@H]2CN(C)C[C@@H]2c2nnc([C@H]3C[C@@H](CC(C)(C)C)C3)n2C2CC2)c(C)c1 [Example F-549] was tested, and the EC50 was < 3 µM. For Cc1cc(Cl)ccc1NC(=O)C[C@H](CCO)c1nnc(-c2cc(CC(C)C)on2)n1C1CC1 [Example F-660], the EC50 was < 3 µM. For Cc1ccc(NC(=O)[C@H]2CC(N(C)C)C[C@@H]2c2nnc([C@H]3C[C@@H](CC(C)C)C3)n2C2CC2)c(C)c1 (single isomer, unassigned) [Example F-534], the EC50 was < 3 µM. With Cc1ccc(NC(=O)CC(c2nnc([C@H]3C[C@@H](CC(C)C)C3)n2C2CC2)C(C)O)c(C)c1 (mixture of isomers) [Example F-529] the EC50 was < 3 µM. For Cc1cc(Cl)ccc1NC(=O)C[C@H](CCO)c1nnc(-c2cc(CCC(C)C)on2)n1C1CC1 [Example F-616], the EC50 was < 3 µM. For Cc1ccc(NC(=O)C[C@H](CC(F)(F)F)c2nnc([C@H]3C[C@@H](CC(C)C)C3)n2C2CC2)c(C)c1 [Example F-568], the EC50 was < 3 µM. Cc1cc(C)c(NC(=O)C[C@H](CCO)c2nnc([C@H]3C[C@@H](CC(C)C)C3)n2C2CC2)c(F)c1 [Example F-548] was tested, and the EC50 was < 3 µM. With Cc1ccc(NC(=O)CC(CO)c2nnc(CCCC(C)(C)C)n2C2CC2)c(C)c1 (racemic) [Example F-497] the EC50 was < 3 µM. Cc1ccc(NC(=O)[C@@H]2CC(F)(F)C[C@H]2c2nnc([C@H]3C[C@@H](CC(C)C)C3)n2C2CC2)c(C)c1 [Example F-572] was tested, and the EC50 was < 3 µM. In the case of Cc1ccc(NC(=O)[C@H]2CN(S(=O)(=O)C(F)F)C[C@@H]2c2nnc([C@H]3C[C@@H](CC(C)(C)C)C3)n2C2CC2)c(C)c1 [Example F-550], the EC50 is reported as < 3 µM. For CCOC(=O)CCc1c(CCC(=O)Nc2ccc(C)cc2C)noc1[C@H]1C[C@@H](CC(C)C)C1 [Example F-663], the EC50 was > 3 µM. Cc1ccc(NC(=O)CC(CCO)c2noc(C3CC(CC(C)C)C3)c2C2CC2)c(C)c1 (stereo not shown) [Example F-580] was tested, and the EC50 was < 3 µM. For Cc1c(F)ccc(NC(=O)C[C@H](CCO)c2nnc([C@H]3C[C@@H](CC(C)C)C3)n2C2CC2)c1C [Example F-623], the EC50 was < 3 µM. For Cc1ccc(NC(=O)C[C@H](Cc2nnn[nH]2)c2noc([C@H]3C[C@@H](CC(C)C)C3)c2C2CC2)c(C)c1 [Example F-641], the EC50 was < 3 µM. Cc1ccc(NC(=O)C[C@H](CCC(=O)NS(C)(=O)=O)c2noc([C@H]3C[C@@H](CC(C)C)C3)c2C2CC2)c(C)c1 [Example F-636] was tested, and the EC50 was < 3 µM. In the case of Cc1ncc(NC(=O)C[C@H](CCC(=O)O)c2noc([C@H]3C[C@@H](CC(C)(C)C)C3)c2C2CC2)c(C)n1 [Example F-674], the EC50 is reported as < 3 µM.

Each compound was assayed against T2, human RORγ (Homo sapiens, UniProt P51449) (assay: Luciferase reporter gene assay of inhibitory effect against RORγ transcriptional activity (GAL4-hRORγ plasmid in CHO cells)). Details: read-out: LUC EC50 (μM) hRORg.
T2 construct: human, NM_005060.3 and from Ser253 to Lys518; expressed in transfected cells; host or cells: CHO cells (transient co-transfection with pG5-Luc reporter)
T2 sequence (P51449 253-518): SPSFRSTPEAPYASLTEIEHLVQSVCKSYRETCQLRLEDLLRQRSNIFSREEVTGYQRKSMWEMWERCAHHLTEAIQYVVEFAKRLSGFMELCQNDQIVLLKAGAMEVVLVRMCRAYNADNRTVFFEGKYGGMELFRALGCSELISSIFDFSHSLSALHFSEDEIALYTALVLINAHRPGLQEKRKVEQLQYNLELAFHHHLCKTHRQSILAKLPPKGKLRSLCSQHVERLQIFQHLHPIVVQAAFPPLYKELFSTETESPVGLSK
Type: cell-based
With COC(=O)C(C)(C)CCCc1nnc(CCC(=O)Nc2cccc(Cl)c2C)n1C1CC1 [Example F-230] the EC50 was < 3 µM. For Cc1ccc(C2CC2)cc1NC(=O)CCc1nnc(CCC(C)C)n1C1CC1 [Example F-152], the EC50 was > 3 µM. Cc1ccc(NC(=O)C[C@H](CCC(=O)O)c2noc(-c3cc(C4CCCC4)on3)c2C2CC2)c(Cl)c1 [Example E-24] was tested, and the EC50 was < 3 µM. For Cc1c(Cl)cccc1NC(=O)CCc1nnc(C2CN(C(=O)C(C)C)C2)n1C1CC1 [Example F-259], the EC50 was > 3 µM. In the case of CC(=O)N1CCCC(CCc2nnc(CCC(=O)Nc3cccc(Cl)c3C)n2C2CC2)C1 (racemic) [Example F-190], the EC50 is reported as > 3 µM. Cc1c(NC(=O)CCc2nnc(CCC(C)C)n2C2CC2)ccc(Cl)c1Cl [Example F-165] was tested, and the EC50 was > 3 µM. With CCn1c(CCC(=O)Nc2cccc3ccccc23)nnc1C1Cc2ccccc2C1 [Example F-1] the EC50 was < 3 µM. For O=C(O)CC[C@@H](CC(=O)Nc1ccc(Cl)cc1Cl)c1noc(-c2cc(C3CCCC3)on2)c1C1CC1 [Example E-70], the EC50 was < 3 µM. In the case of CC(=O)N1C[C@H](C(=O)Nc2ccc(C)cc2C)[C@@H](c2nnc([C@H]3C[C@H](OC(C)C)C3)n2C2CC2)C1 [Example F-334], the EC50 is reported as < 3 µM. With CC(C)C(F)(F)c1cc(-c2onc([C@@H](CCC(=O)O)CC(=O)Nc3ccc(F)cc3Cl)c2C2CC2)no1 [Example E-61] the EC50 was < 3 µM. With CCn1c(CCC(=O)Nc2cccc(Cl)c2C)nnc1CCC(C)C [Example F-52] the EC50 was > 3 µM. CC(=O)N1C[C@H](C(=O)Nc2ccc(C)cc2C)[C@@H](c2nnc(C3CN(S(=O)(=O)C(C)C)C3)n2C2CC2)C1 (racemic) [Example F-418] was tested, and the EC50 was > 3 µM. In the case of COCc1ccc(C)c(NC(=O)CCc2nnc(CCC(C)C)n2C2CC2)c1 [Example F-174], the EC50 is reported as > 3 µM. For Cc1ccc(NC(=O)C[C@H](CCC(=O)O)c2noc(-c3cc(C4(C)CCCC4)on3)c2C2CC2)c(Cl)c1 [Example E-42], the EC50 was < 3 µM. Cc1ccc(NC(=O)C[C@H](N)c2nnc(CCCC(C)(C)C)n2C2CC2)c(C)c1 [Example F-359] was tested, and the EC50 was < 3 µM. For Cc1ccc(NC(=O)C[C@H](CCC(=O)O)c2noc(-c3cc(C(F)(F)C4CC4)on3)c2C2CC2)c(Cl)c1 [Example E-73], the EC50 was < 3 µM.

Same assay, conditions: read-out: LUC EC50 hRORg
With Cc1ccc(NC(=O)[C@H]2CN(C)C[C@@H]2c2nnc([C@H]3C[C@@H](CC(C)(C)C)C3)n2C2CC2)c(C)c1 [Example F-549] the EC50 was < 3 µM. Cc1cc(Cl)ccc1NC(=O)C[C@H](CCO)c1nnc(-c2cc(CC(C)C)on2)n1C1CC1 [Example F-660] was tested, and the EC50 was < 3 µM. For Cc1ccc(NC(=O)[C@H]2CC(N(C)C)C[C@@H]2c2nnc([C@H]3C[C@@H](CC(C)C)C3)n2C2CC2)c(C)c1 (single isomer, unassigned) [Example F-534], the EC50 was < 3 µM. Cc1ccc(NC(=O)CC(c2nnc([C@H]3C[C@@H](CC(C)C)C3)n2C2CC2)C(C)O)c(C)c1 (mixture of isomers) [Example F-529] was tested, and the EC50 was < 3 µM. In the case of Cc1cc(Cl)ccc1NC(=O)C[C@H](CCO)c1nnc(-c2cc(CCC(C)C)on2)n1C1CC1 [Example F-616], the EC50 is reported as < 3 µM. For Cc1ccc(NC(=O)C[C@H](CC(F)(F)F)c2nnc([C@H]3C[C@@H](CC(C)C)C3)n2C2CC2)c(C)c1 [Example F-568], the EC50 was < 3 µM. In the case of Cc1cc(C)c(NC(=O)C[C@H](CCO)c2nnc([C@H]3C[C@@H](CC(C)C)C3)n2C2CC2)c(F)c1 [Example F-548], the EC50 is reported as < 3 µM. With Cc1ccc(NC(=O)CC(CO)c2nnc(CCCC(C)(C)C)n2C2CC2)c(C)c1 (racemic) [Example F-497] the EC50 was < 3 µM. For Cc1ccc(NC(=O)[C@@H]2CC(F)(F)C[C@H]2c2nnc([C@H]3C[C@@H](CC(C)C)C3)n2C2CC2)c(C)c1 [Example F-572], the EC50 was < 3 µM. With Cc1ccc(NC(=O)[C@H]2CN(S(=O)(=O)C(F)F)C[C@@H]2c2nnc([C@H]3C[C@@H](CC(C)(C)C)C3)n2C2CC2)c(C)c1 [Example F-550] the EC50 was < 3 µM. With CCOC(=O)CCc1c(CCC(=O)Nc2ccc(C)cc2C)noc1[C@H]1C[C@@H](CC(C)C)C1 [Example F-663] the EC50 was > 3 µM. Cc1ccc(NC(=O)CC(CCO)c2noc(C3CC(CC(C)C)C3)c2C2CC2)c(C)c1 (stereo not shown) [Example F-580] was tested, and the EC50 was < 3 µM. With Cc1c(F)ccc(NC(=O)C[C@H](CCO)c2nnc([C@H]3C[C@@H](CC(C)C)C3)n2C2CC2)c1C [Example F-623] the EC50 was < 3 µM. With Cc1ccc(NC(=O)C[C@H](Cc2nnn[nH]2)c2noc([C@H]3C[C@@H](CC(C)C)C3)c2C2CC2)c(C)c1 [Example F-641] the EC50 was < 3 µM. With Cc1ccc(NC(=O)C[C@H](CCC(=O)NS(C)(=O)=O)c2noc([C@H]3C[C@@H](CC(C)C)C3)c2C2CC2)c(C)c1 [Example F-636] the EC50 was < 3 µM. With Cc1ncc(NC(=O)C[C@H](CCC(=O)O)c2noc([C@H]3C[C@@H](CC(C)(C)C)C3)c2C2CC2)c(C)n1 [Example F-674] the EC50 was < 3 µM.
